Data from patent US8084457B2, “Pharmaceutically active 4,6-disubstituted aminopyrimidine derivatives as modulators of protein kinases” (Lead Discovery Center GmbH, priority 2003, dated 2011).

Tests used:
CDK9/Cyclin T1 = molecular target: T1, CDK9/Cyclin T1 (Homo sapiens, UniProt P50750); test: Kinase assay using CDK9/Cyclin T1; assay type: biochemical; details: read-out: CDK9 (activity range)
T1 construct: made in house; host or cells: HEK293 cells, recombinant adenovirus
Excerpt: Cloning of CDK9 and Cyclin T1:
Both cDNA fragments were cloned by PCR into pDONR201 vectors using the gateway recombination system (Invitrogen) according to the manufacturer's recommendations. The fragments were subcloned into a gateway-adapted shuttle vector (pPM7) for production of recombinant adenovirus. All plasmids were verified by restriction digests and sequencing analysis.
Expression and Purification of CDK9/Cyclin T1 Proteins:
Expression and purification was in principle performed as described by Cotten et al. (M. Cotten et al., Nucleic acids research, 2003, 31(28), 128).
Kinase Assay Using CDK9/Cyclin T1:
Kinase assays were performed in principle as described by Cotten et al. (M. Cotten et al., Nucleic acids research, 2003, 31(28), 128).

CDK2/CyclinA = molecular target: T2, CDK2/CyclinA (Homo sapiens, UniProt P24941); test: Kinase assay determining CDK2/CyclinA activity; assay type: biochemical; details: read-out: CDK2 (activity range)
T2 construct: purchased Proqinase
Method: Kinase Assays Determining CDK2/CyclinA and CDK5/p35 Activity:
Kinase assays were performed as described by the manufacturers recommendations (Proqinase for CDK2/CyclinA and Upsate for CDK5/p35).

T1 sequence (P50750 whole entry): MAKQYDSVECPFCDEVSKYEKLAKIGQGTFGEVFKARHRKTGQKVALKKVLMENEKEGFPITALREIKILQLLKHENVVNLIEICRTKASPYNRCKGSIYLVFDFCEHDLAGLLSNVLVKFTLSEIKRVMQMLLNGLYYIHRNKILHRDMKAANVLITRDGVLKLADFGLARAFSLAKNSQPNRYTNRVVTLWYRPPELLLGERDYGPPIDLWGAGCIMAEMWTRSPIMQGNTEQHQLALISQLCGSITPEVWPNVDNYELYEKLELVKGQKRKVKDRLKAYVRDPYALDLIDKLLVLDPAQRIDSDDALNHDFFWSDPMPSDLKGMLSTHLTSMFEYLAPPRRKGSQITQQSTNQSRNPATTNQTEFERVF
T1 sequence (O60563 whole entry partner): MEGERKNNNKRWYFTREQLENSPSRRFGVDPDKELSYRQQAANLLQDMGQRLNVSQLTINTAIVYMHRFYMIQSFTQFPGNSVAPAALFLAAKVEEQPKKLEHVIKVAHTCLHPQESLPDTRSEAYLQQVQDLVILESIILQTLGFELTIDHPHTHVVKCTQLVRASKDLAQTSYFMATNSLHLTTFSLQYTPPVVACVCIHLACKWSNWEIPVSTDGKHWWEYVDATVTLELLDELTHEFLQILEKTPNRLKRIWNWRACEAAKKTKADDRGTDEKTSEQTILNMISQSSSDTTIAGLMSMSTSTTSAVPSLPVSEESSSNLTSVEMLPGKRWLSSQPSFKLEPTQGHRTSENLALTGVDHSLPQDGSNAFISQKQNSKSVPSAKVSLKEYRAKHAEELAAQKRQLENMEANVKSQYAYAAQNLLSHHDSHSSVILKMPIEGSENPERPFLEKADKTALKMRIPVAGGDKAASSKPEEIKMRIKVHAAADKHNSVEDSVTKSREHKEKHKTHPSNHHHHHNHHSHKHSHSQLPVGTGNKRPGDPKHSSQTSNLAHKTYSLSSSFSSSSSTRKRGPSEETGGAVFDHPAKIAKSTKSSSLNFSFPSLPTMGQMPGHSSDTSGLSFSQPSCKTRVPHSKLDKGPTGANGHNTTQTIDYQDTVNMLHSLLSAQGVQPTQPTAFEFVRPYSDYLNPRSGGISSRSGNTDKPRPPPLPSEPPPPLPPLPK

IC50 (CDK9/Cyclin T1) [µM]	IC50 (CDK2/CyclinA) [µM]	SMILES
1 to 10	1 to 10	COc1ccccc1-c1cc(Nc2ccc(NC(=O)CC(C)(C)C)cc2)ncn1 [(42)]
1 to 10	10 to 250	Nc1ccc(C(=O)Nc2ccc(Nc3cc(NCC4CCCCC4)ncn3)cc2)cc1 [(43)]
1 to 10	10 to 250	COc1ccccc1-c1cc(Nc2ccc(NC(=O)c3ccc(C(C)(C)C)cc3)cc2)ncn1 [(45)]
0.001 to 1	1 to 10	COc1ccccc1-c1cc(Nc2ccc(NC(=O)c3ccc(N4CCN(C)CC4)cc3)cc2)ncn1 [(49)]
1 to 10	10 to 250	COc1ccccc1-c1cc(Nc2ccc(NC(=O)c3ccncc3)cc2)ncn1 [(50)]
1 to 10	10 to 250	COc1cccc(OC)c1-c1cc(Nc2ccc(NC(=O)c3ccc(N)cc3)cc2)ncn1 [(51)]
0.001 to 1	10 to 250	COc1ccccc1-c1cc(Nc2ccc(C(=O)Nc3ccccc3)cc2)ncn1 [(52)]
1 to 10	1 to 10	COc1ccccc1-c1cc(Nc2ccc(NC(=N)N)cc2)ncn1 [(53)]
1 to 10	1 to 10	COc1ccccc1-c1cc(Nc2ccc(C(=O)NC(C)(C)C)cc2)ncn1 [(54)]
0.001 to 1	1 to 10	CCOc1ccccc1-c1cc(Nc2ccc(NC(=O)c3ccc(N)cc3)cc2)ncn1 [(55)]
1 to 10	1 to 10	COc1cccc(-c2cc(Nc3ccc(NC(=O)c4ccc(N)cc4)cc3)ncn2)c1OC [(56)]
10 to 250	10 to 250	COc1ccc(OC)c(-c2cc(Nc3ccc(NC(=O)c4ccc(N)cc4)cc3)ncn2)c1 [(57)]
0.001 to 1	0.001 to 1	CC(C)Oc1ccccc1-c1cc(Nc2ccc(NC(=O)c3ccc(N)cc3)cc2)ncn1 [(58)]
1 to 10	10 to 250	Nc1ccc(C(=O)Nc2ccc(Nc3cc(NCCO)ncn3)cc2)cc1 [(60)]
10 to 250	10 to 250	Nc1ccc(C(=O)Nc2ccc(Nc3cc(-c4ccncc4)ncn3)cc2)cc1 [(67)]
0.001 to 1	1 to 10	COc1ccccc1-c1cc(Nc2ccc(NC(=O)c3cn(C)cn3)cc2)ncn1 [(70)]
0.001 to 1	1 to 10	COc1ccccc1-c1cc(Nc2ccc(NC(=O)Cc3ccccc3)cc2)ncn1 [(71)]
10 to 250	10 to 250	CN1CCC(Nc2cc(Nc3ccc(NC(=O)C(C)(C)C)cc3)ncn2)CC1 [(74)]
1 to 10	10 to 250	Nc1ccc(C(=O)Nc2ccc(Nc3cc(-c4ccccc4)ncn3)cc2)cc1 [(76)]
1 to 10	10 to 250	Nc1ccc(C(=O)Nc2ccc(Nc3cc(-c4cccs4)ncn3)cc2)cc1 [(77)]
10 to 250	10 to 250	CC(C)(C)C(=O)Nc1ccc(Nc2cc(NCCN)ncn2)cc1 [(79)]
10 to 250	10 to 250	CC(C)(C)C(=O)Nc1ccc(Nc2cc(NCCCO)ncn2)cc1 [(80)]
1 to 10	10 to 250	COc1ccccc1-c1cc(Nc2ccc(NC(=O)c3nc4ccccc4s3)cc2)ncn1 [(84)]
0.001 to 1	1 to 10	CC(C)(C)C(=O)Nc1ccc(Nc2cc(-c3ccccc3OCc3ccccc3)ncn2)cc1 [(85)]
0.001 to 1	1 to 10	COc1ccccc1-c1cc(Nc2ccc(NC(=O)[C@@H]3CCN3)cc2)ncn1 [(90)]
1 to 10	10 to 250	COc1ccccc1-c1cc(Nc2ccc(NC(=O)c3ccc(N)cc3)cc2)nc(N)n1 [(97)]
0.001 to 1	10 to 250	COc1ccccc1-c1cc(Nc2ccc(NC(=O)NCc3ccc(C)cc3)cc2)ncn1 [(112)]
0.001 to 1	1 to 10	COc1ccccc1-c1cc(Nc2ccc(NC(=O)NC(C)(C)C)cc2)ncn1 [(113)]
10 to 250	10 to 250	CC(C)(C)C(=O)Nc1ccc(Nc2cc(-c3ccccc3C(F)(F)F)ncn2)cc1 [(114)]
1 to 10	0.001 to 1	Nc1cccc(-c2cc(Nc3ccc(S(N)(=O)=O)cc3)ncn2)c1 [(117)]

More lines, now with the values behind:

SMILES	IC50 (CDK9/Cyclin T1) [µM]	IC50 (CDK2/CyclinA) [µM]
Cc1ccc(S(=O)(=O)Nc2ccc(Nc3cc(-c4cccc(/C=C/C(=O)O)c4)ncn3)cc2)cc1 [(40)]	10 to 250	10 to 250
COc1ccccc1-c1cc(Nc2ccc(NC(=O)C3CCCCC3)cc2)ncn1 [(41)]	1 to 10	10 to 250
COc1ccccc1-c1cc(Nc2ccc(C(=O)NC3CCCCC3)cc2)ncn1 [(44)]	0.001 to 1	1 to 10
COc1ccccc1-c1cc(Nc2ccc(NC(=O)C3(NC(=O)OC(C)(C)C)CCCC3)cc2)ncn1 [(47)]	0.001 to 1	10 to 250
COc1ccccc1-c1cc(Nc2ccc(NC(=O)CC3CCCCN3C(=O)OC(C)(C)C)cc2)ncn1 (stereo not shown) [(48)]	1 to 10	1 to 10
COc1ccccc1-c1cc(Nc2ccc(NC(=O)C34CC5CC(CC(C5)C3)C4)cc2)ncn1 [(61)]	1 to 10	10 to 250
COc1ccccc1-c1cc(Nc2ccc(-c3nc4ccccc4o3)cc2)ncn1 [(62)]	10 to 250	10 to 250
COc1ccccc1-c1cc(Nc2ccc(-c3nc4ccccc4[nH]3)cc2)ncn1 [(63)]	0.001 to 1	0.001 to 1
COc1ccc(-c2cc(NCCc3ccncc3)ncn2)cc1 [(92)]	10 to 250	10 to 250
COc1ccccc1-c1cc(NCCc2ccncc2)ncn1 [(93)]	1 to 10	10 to 250
Oc1ccccc1-c1cc(NCCc2ccncc2)ncn1 [(94)]	1 to 10	10 to 250
COc1ccccc1-c1cc(N(C)c2ccc(NS(=O)(=O)c3ccc(C)cc3)cc2)ncn1 [(96)]	1 to 10	1 to 10
COc1ccccc1-c1cc(Nc2ccc(NC(=O)c3ccc4ccccc4n3)cc2)ncn1 [(98)]	0.001 to 1	10 to 250
CC(C)Oc1ccccc1-c1cc(NCCc2ccncc2)ncn1 [(99)]	0.001 to 1	1 to 10
COc1cccc(-c2cc(Nc3ccc(C)c(NS(C)(=O)=O)c3)ncn2)c1 [(100)]	1 to 10	1 to 10
COc1ccccc1-c1cc(Nc2ccc(NC(=O)C(c3ccccc3)N(C)C)cc2)ncn1 (stereo not shown) [(101)]	0.001 to 1	1 to 10
Cc1ccc(Nc2cc(-c3cccc(NS(C)(=O)=O)c3)ncn2)cc1NS(C)(=O)=O [(108)]	1 to 10	0.001 to 1
Cc1ccc(Nc2cc(-c3cccc(N)c3)ncn2)cc1NS(=O)(=O)c1ccccc1 [(109)]	0.001 to 1	1 to 10
Cc1ccc(Nc2cc(-c3cncnc3)ncn2)cc1NS(C)(=O)=O [(110)]	1 to 10	1 to 10
COc1ccccc1-c1cc(Nc2cccc(C(N)=O)c2)ncn1 [(115)]	0.001 to 1	0.001 to 1
CCCS(=O)(=O)Nc1cc(Nc2cc(-c3cccc(N)c3)ncn2)ccc1C [(116)]	0.001 to 1	0.001 to 1
COc1ccccc1-c1cc(Nc2ccc(NC(=O)C(C)(C)C)cc2C)ncn1 [(119)]	10 to 250	10 to 250
CS(=O)(=O)Nc1cc(Nc2cc(-c3cccc(N)c3)ncn2)ccc1OCc1ccccc1 [(120)]	1 to 10	1 to 10
CS(=O)(=O)Nc1cccc(Nc2cc(-c3cccc(N)c3)ncn2)c1 [(121)]	0.001 to 1	1 to 10
COc1ccccc1-c1cc(Nc2cccc(NC(=O)C(C)(C)C)c2)ncn1 [(122)]	1 to 10	1 to 10
COc1ccccc1-c1cc(Nc2ccc(N)cc2C)ncn1 [(123)]	1 to 10	1 to 10
